Values quoted from earlier work as cited in patent publication US20170101624A1, “METHODS OF ENHANCING T-CELL LONGEVITY AND USES THEREOF” (Washington University, priority 2015, published 2017).

Tested on: Drp1 (Dnm1)
Conditions: as disclosed in Cassidy-Stone et al. Developmental Cell 2008

COc1cc(-n2c(=S)[nH]c3ccccc3c2=O)c(Cl)cc1Cl [compound A]
efficacy relative to Mdivi-1 (inhibition of mitochondrial fission): full efficacy
